# Key:
# [1] = Zeta-potential measurement; type: physicochemical
# How it was run: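 Aggregates: 1 mg/mL peptide, PBS pH 7.4, 1 d RT; dilute in KCl (1 mM, aq); measure mobility → zeta via Smoluchowski.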
# [2] = Turbidity, derived count rate of scattered light; type: physicochemical; conditions: for Count Rate: derived count rate of scattered light (turbidity); for Log10 Count Rate: turbidity, derived count rate of scattered light, data of Figure 2D
# [3] = tested on: HIV-1 infection of TZM-bl cells; assay: HIV-1 infectivity enhancement assay, β-galactosidase luminescence; type: cell-based; conditions: for Rel-EFC / Log10 Infection Rel EFC: 1.3 µM peptide; for Rel-EFC: infection relative to EF-C (QCKIKQIINMWQ = 1); for Log10 Infection Rel EFC: log10 of infection relative to EF-C; for Log Infectivity: Log10 infection relative to EF-C, TZM-bl cells, asymmetric std dev errors; for Log10 Infection Rel EF-C: HIV-1 infection of TZM-bl cells; for Abs. Inf.: absolute infection signal, HIV-1 on TZM-bl cells, β-galactosidase luminescence; for Log10 Inf. rel. to EF-C: log10 of HIV-1 infection of TZM-bl cells relative to EF-C (EF-C = 0)
# [4] = Turbidity, derived count rate of scattered light; type: physicochemical; conditions: for Count Rate / kcps: derived count rate of scattered light at 633 nm, 173°, from zeta-potential measurement, 0.1 mg/mL in 1 mM KCl after 1 d at 1 mg/mL in PBS, turbidity / microscopic aggregation, mean of triplicate
# How it was run: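 Samples: 1 mg/mL in PBS pH 7.4 (from DMSO), 1 d at RT, then diluted in 1 mM KCl immediately before measurement. Triplicates, two independent runs averaged.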
# [5] = zeta-potential of peptide, source data of Figure 2C
# [6] = zeta-potential of the peptide assemblies, mean, Figure 3A source data
# [7] = Fig. S7 panel A (plotted against β-sheet content)
# [8] = Log10 of infection rate relative to EF-C, Figure 3A source data
# [9] = infection rate relative to EF-C, log10, data of Figure 2D
# [10] = infection rate relative to EF-C, log10, source data of Figure 2C
# [11] = Log10 of derived count rate of scattered light (turbidity)
# [12] = turbidity, Log10 of derived count rate of scattered light, Figure 3A source data
# [13] = turbidity, log10 of derived count rate of scattered light
Sequence,Zeta-Pot. [1],"Zeta-Potential / mV [1, 5] [mV]","Zeta-Potential / mV [1, 6] [mV]",Count Rate [2],Log10 Count Rate [2],Rel-EFC [3],Log10 Infection Rel EFC [3],"Log Infectivity [3, 7]","Log Infectivity ([3]; Fig. S7 panel B (plotted against CR), rounded to two decimals)","Log10 Infection Rel EF-C [3, 8]","Log10 Infection Rel EF-C [3, 9]","Log10 Infection Rel EF-C [3, 10]",Abs. Inf. [3],Log10 Inf. rel. to EF-C [3],"Log10 Count Rate [4, 11]",Count Rate / kcps [4] [kcps],"Log10 Count Rate [4, 12]","Log10 Count Rate [4, 13]"
SISISRRI,-17,-9.316,-17,25.27,1.403,"0,03","-1,55",-1.548,-1.55,-1.55,-1.548,-1.548,313.3,-1.548,1.403,25,1.403,1.403
TKTLTKTL,-25.1,-13.63,-25.1,514.6,2.711,"0,02","-1,67",-1.671,,-1.67,-1.671,-1.671,316.7,-1.671,2.711,515,2.711,2.711
